“And” between values parts separate entries of the source, which are not always exact repeats. Equal values may be shown once. Where a name gives a salt, the structure may show the parent alone. Read-outs that look alike come from different tables or passages of the source.
Legend:
[1] = cited from earlier work
P-gp = details: cited from earlier work
[2] = tested on: rat intestine (proximal jejunum and distal ileum); assay: In situ single-pass intestinal perfusion; type: in vivo; details: physiological vs alternate pH, HDS, n = 6
Caco-2 cell monolayers [3] = assay: Transport studies across Caco-2 cell monolayers
[4] = Transport studies across Caco-2 cell monolayers; details: human
Caco-2 cells = details: Caco-2, initial concentration based on HDS in 250 ml water; cited from earlier work
pKa = type: physicochemical
Caco-2 cell monolayers [5] = details: human, Caco-2, pH 7.5
rat small intestine = details: cited from earlier work

CC(CCc1ccccc1)NCC(O)c1ccc(O)c(C(N)=O)c1 (stereo not drawn) [labetalol hydrochloride]
Absorption from the GI tract ([1]; FDA product information of Trandate): completely absorbed

COCCc1ccc(OCC(O)CNC(C)C)cc1 (stereo not drawn) [Metoprolol]
Interaction with P-gp (P-gp): does not interact with P-gp
Effect of change of pH (6.5 vs 7.5) on permeability in jejunum and ileum [2]: did not significantly affect
Effect of verapamil on permeability in AP-BL and BL-AP directions (Caco-2 cell monolayers [3]; 0.1 mM verapamil, 0.1 times HDS (40 μg/ml), AP pH 7.5): no effect
Increase of ER under AP pH 6.5 (Caco-2 cell monolayers [3]; AP pH 6.5 compared with AP pH 7.5): 3.6 times
Papp at 120 min ([4]; Caco-2, pH 6.5): 9.44 ± 3.44 ×10⁻⁶ cm/s
Papp at 120 min ([4]; Caco-2, pH 7.5): 23.2 ± 7.1 ×10⁻⁶ cm/s

CCn1cc(C(=O)O)c(=O)c2cc(F)c(N3CCNC(C)C3)c(F)c21 (stereo not drawn) [lemofloxacin, lomefloxacin]
Permeability classification based on comparison to labetalol (Caco-2 cells): high permeability

CC(CCc1ccccc1)NCC(O)c1ccc(O)c(C(N)=O)c1 (stereo not drawn) [Labetalol]
Isoelectric point (maximum unionized fraction) (pKa): 8.4 pH
Increase in AP-BL direction transport caused by verapamil (Caco-2 cell monolayers [5]): 1.5 times
Effect of change of pH (6.5 vs 7.5) on permeability in jejunum and ileum [2]: did not significantly affect
Time to reach maximum plasma concentration (tmax) ([1]; 100 mg oral dose, healthy volunteers): 48 min
Systemic BA (mean) ([1]; hypertensive subjects): 33%
Dose excreted in the urine as unchanged drug ([1]; man): up to 5%
Orally administered dose of radioactivity excreted by urine ([1]; within 24 h, two subjects, 200 mg oral dose): 55% and 60%
Increase in apparent absorption rate constant of labetalol produced by verapamil (rat small intestine; highest labetalol concentration (100)): about 53%
Increase in apparent absorption rate constant of labetalol produced by verapamil (rat small intestine; lowest labetalol concentration (10)): about 84%
Papp at 120 min ([4]; Caco-2, pH 6.5): 5.96 ± 1.96 ×10⁻⁶ cm/s
Papp A→B at 120 min, 120 μg/ml ([4]; Caco-2, pH 7.5): 14.2 ± 1.5 ×10⁻⁶ cm/s
Papp B→A at 120 min, 120 μg/ml ([4]; Caco-2, pH 7.5): 46.7 ± 6.5 ×10⁻⁶ cm/s
Papp at 120 min ([4]; Caco-2, pH 7.5): 15.9 ± 2.2 ×10⁻⁶ cm/s

Source: paper PMC3605724 (Molecular pharmaceutics, 2013)
